Source: ChEMBL document CHEMBL1201862, “PubChem BioAssay data set” (2004)
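Five concentrations, 48 hours, 96-well plates. GI50: concentration for 50% inhibition of growth.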 Calls of active or inactive are those of the source. No stated cut-off is given here; in the data, active = GI50 up to about 1.1 µM and inactive = higher.

How the values were obtained:
Assay in all cases: NCI tumour cell line growth inhibition, 48 h
T47D = tested on: T47D
CCRF-CEM = tested on: CCRF-CEM
Hs-578T = tested on: Hs-578T
HL-60 = tested on: HL-60
A498 = tested on: A498
U-251 = tested on: U-251
EKVX = tested on: EKVX
OVCAR-3 = tested on: OVCAR-3
SF-268 = tested on: SF-268
MDA-MB-435 = tested on: MDA-MB-435
OVCAR-5 = tested on: OVCAR-5
UO-31 = tested on: UO-31
MDA-N = tested on: MDA-N
SF-295 = tested on: SF-295
OVCAR-4 = tested on: OVCAR-4
RXF 393 = tested on: RXF 393
786-0 = tested on: 786-0
SN12C = tested on: SN12C
HCT-15 = tested on: HCT-15
NCI-H23 = tested on: NCI-H23

Row | SMILES | GI50 (T47D) | GI50 (CCRF-CEM) | GI50 (Hs-578T) | GI50 (HL-60) | GI50 (A498) | GI50 (U-251) | GI50 (EKVX) | GI50 (OVCAR-3) | GI50 (SF-268) | GI50 (MDA-MB-435) | GI50 (OVCAR-5) | GI50 (UO-31) | GI50 (MDA-N) | GI50 (SF-295) | GI50 (OVCAR-4) | GI50 (RXF 393) | GI50 (786-0) | GI50 (SN12C) | GI50 (HCT-15) | GI50 (NCI-H23)
1 | c1nnc(NCNc2nncs2)s1 | 90.4 µM (inactive) | 61.1 µM (inactive) | > 100 µM (inactive) | 46.3 µM (inactive) | 4.16 µM (inactive) | 50 µM (inactive) | 23.3 µM (inactive) | 21.5 µM (inactive) | > 100 µM (inactive) | 28.6 µM (inactive) | 79.3 µM (inactive) | 53.3 µM (inactive) | 35.2 µM (inactive) | 28.1 µM (inactive) | 11.7 µM (inactive) | 29 µM (inactive) | 46.8 µM (inactive) | 30.9 µM (inactive) | 40.2 µM | 47.9 µM (inactive)
2 | O=C(CCc1ccc(O)cc1)NCCc1ccc(O)cc1 | > 100 µM (inactive) | > 100 µM (inactive) | > 100 µM (inactive) | > 100 µM (inactive) | > 100 µM (inactive) | > 100 µM (inactive) | > 100 µM (inactive) | > 100 µM (inactive) | > 100 µM (inactive) | > 100 µM (inactive) | > 100 µM (inactive) | > 100 µM (inactive) | > 100 µM (inactive) | > 100 µM (inactive) | > 100 µM (inactive) | > 100 µM (inactive) | > 100 µM (inactive) | > 100 µM (inactive) | > 100 µM | > 100 µM (inactive)
3 | Nc1ccc(I)cn1 | > 100 µM (inactive) | > 100 µM (inactive) | > 100 µM (inactive) | > 100 µM (inactive) | > 100 µM (inactive) | > 100 µM (inactive) | > 100 µM (inactive) | > 100 µM (inactive) | > 100 µM (inactive) | > 100 µM (inactive) | > 100 µM (inactive) | > 100 µM (inactive) | > 100 µM (inactive) | > 100 µM (inactive) | > 100 µM (inactive) | > 100 µM (inactive) | > 100 µM (inactive) | > 100 µM (inactive) | > 100 µM | > 100 µM (inactive)
4 | N/C(=N/c1ccc(O)cc1)S(=O)(=O)O | > 100 µM (inactive) | > 100 µM (inactive) | > 100 µM (inactive) | > 100 µM (inactive) | > 100 µM (inactive) | > 100 µM (inactive) | > 100 µM (inactive) | > 100 µM (inactive) | > 100 µM (inactive) | > 100 µM (inactive) | > 100 µM (inactive) | > 100 µM (inactive) | > 100 µM (inactive) | > 100 µM (inactive) | > 100 µM (inactive) | > 100 µM (inactive) | > 100 µM (inactive) | > 100 µM (inactive) | > 100 µM | > 100 µM (inactive)
5 | CC(=O)O[C@H]1C(=O)[C@@]2(C)[C@H]([C@H](OC(=O)c3ccccc3)[C@]3(O)C[C@H](OC(=O)[C@H](O)[C@@H](NC(=O)c4ccc(N)cc4)c4ccccc4)C(C)=C1C3(C)C)[C@]1(OC(C)=O)CO[C@@H]1C[C@@H]2O | < 0.005 µM (active) | < 0.005 µM (active) | < 0.005 µM (active) | < 0.005 µM (active) | 0.0902 µM (active) | < 0.005 µM (active) | 0.959 µM (active) | < 0.005 µM (active) | 0.0107 µM (active) | 0.0158 µM (active) | 0.00687 µM (active) | 8.32 µM (inactive) | < 0.005 µM (active) | 0.135 µM (active) | > 31.8 µM (inactive) | 0.0887 µM (active) | 0.0369 µM (active) | – | 2.68 µM | –
6 | Cc1cc(NS(=O)(=O)c2ccc(NC(=O)c3ccc4nc5ccccc5c(Nc5ccc(S(=O)(=O)N=C(N)N)cc5)c4c3)cc2)no1 | 14.6 µM (inactive) | 11.2 µM (inactive) | 20 µM (inactive) | 17.5 µM (inactive) | 19.5 µM (inactive) | 16.2 µM (inactive) | 16.4 µM (inactive) | 17.7 µM (inactive) | 19 µM (inactive) | 19.9 µM (inactive) | 17.5 µM (inactive) | 17.2 µM (inactive) | 19.5 µM (inactive) | 16.9 µM (inactive) | 14.3 µM (inactive) | 15.3 µM (inactive) | 15.2 µM (inactive) | 17 µM (inactive) | 15.4 µM | 18.8 µM (inactive)
7 | N#Cc1sc2c(c1OC(=O)c1ccc(C(F)(F)F)cc1)c(=O)n(-c1ccccc1)c(=S)n2-c1ccccc1 | 34.5 µM (inactive) | 10.2 µM (inactive) | 26.2 µM (inactive) | 21 µM (inactive) | 26.7 µM (inactive) | 20.7 µM (inactive) | 24.9 µM (inactive) | 19.5 µM (inactive) | 33 µM (inactive) | 26.5 µM (inactive) | 49.2 µM (inactive) | – | 29.5 µM (inactive) | 25.6 µM (inactive) | 33.8 µM (inactive) | 14.8 µM (inactive) | 32.1 µM (inactive) | 29.5 µM (inactive) | 21.8 µM | 29.6 µM (inactive)
